The subject of one test is Vero. The test can be described thus: viability of Vero cells under compound – cytotoxicity control for flavivirus capping enzyme inhibitors (AID 588742). Type of test: functional. The settings on record: Chlorocebus sabaeus.
The next test addresses Genome polyprotein (dengue virus type 2, UniProt P29990). Briefly: flavivirus cap methylation enzyme inhibition – biochemical, confirmation dose response, primary screen (AID 588689). It counts as functional.
The target of test [1] is Ras and Rab interactor 1/Tyrosine-protein kinase ABL1 (Homo sapiens, UniProt P00519+Q13671). It counts as functional.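 Note: biochemical TR-FRET dose-response test measuring inhibition of binding between Rin1 and Abl proteins.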
Ras and Rab interactor 1/Tyrosine-protein kinase ABL1, sequence (P00519 whole entry): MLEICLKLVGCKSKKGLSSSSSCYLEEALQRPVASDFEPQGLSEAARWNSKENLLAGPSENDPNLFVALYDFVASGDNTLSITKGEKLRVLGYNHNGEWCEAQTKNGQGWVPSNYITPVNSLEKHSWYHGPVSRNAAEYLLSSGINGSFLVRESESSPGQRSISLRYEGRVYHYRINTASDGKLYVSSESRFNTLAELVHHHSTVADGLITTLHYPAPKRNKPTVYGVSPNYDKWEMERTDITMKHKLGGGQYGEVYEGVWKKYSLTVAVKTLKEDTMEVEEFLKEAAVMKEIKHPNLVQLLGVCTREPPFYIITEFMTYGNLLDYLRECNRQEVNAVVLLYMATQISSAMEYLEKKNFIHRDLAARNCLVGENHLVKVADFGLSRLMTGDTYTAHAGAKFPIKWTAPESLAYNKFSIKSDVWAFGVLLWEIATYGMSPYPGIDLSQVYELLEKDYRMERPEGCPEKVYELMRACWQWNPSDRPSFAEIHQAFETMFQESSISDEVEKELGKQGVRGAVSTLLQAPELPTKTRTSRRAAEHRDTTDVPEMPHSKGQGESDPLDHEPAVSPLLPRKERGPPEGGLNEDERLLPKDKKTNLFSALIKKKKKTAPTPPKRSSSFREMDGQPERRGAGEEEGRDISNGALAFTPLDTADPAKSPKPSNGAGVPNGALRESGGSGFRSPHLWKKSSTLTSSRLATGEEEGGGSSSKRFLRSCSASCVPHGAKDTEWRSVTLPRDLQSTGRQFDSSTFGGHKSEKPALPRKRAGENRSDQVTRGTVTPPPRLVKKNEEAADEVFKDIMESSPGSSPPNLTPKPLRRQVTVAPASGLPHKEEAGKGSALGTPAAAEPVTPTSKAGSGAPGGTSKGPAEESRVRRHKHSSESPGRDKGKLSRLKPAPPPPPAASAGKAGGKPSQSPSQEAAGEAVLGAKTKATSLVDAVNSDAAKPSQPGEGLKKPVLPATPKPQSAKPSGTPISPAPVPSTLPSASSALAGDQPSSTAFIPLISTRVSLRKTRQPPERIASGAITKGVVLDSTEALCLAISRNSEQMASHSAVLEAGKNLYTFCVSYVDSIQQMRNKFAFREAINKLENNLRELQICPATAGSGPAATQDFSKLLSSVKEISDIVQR
Ras and Rab interactor 1/Tyrosine-protein kinase ABL1, sequence (Q13671 whole entry): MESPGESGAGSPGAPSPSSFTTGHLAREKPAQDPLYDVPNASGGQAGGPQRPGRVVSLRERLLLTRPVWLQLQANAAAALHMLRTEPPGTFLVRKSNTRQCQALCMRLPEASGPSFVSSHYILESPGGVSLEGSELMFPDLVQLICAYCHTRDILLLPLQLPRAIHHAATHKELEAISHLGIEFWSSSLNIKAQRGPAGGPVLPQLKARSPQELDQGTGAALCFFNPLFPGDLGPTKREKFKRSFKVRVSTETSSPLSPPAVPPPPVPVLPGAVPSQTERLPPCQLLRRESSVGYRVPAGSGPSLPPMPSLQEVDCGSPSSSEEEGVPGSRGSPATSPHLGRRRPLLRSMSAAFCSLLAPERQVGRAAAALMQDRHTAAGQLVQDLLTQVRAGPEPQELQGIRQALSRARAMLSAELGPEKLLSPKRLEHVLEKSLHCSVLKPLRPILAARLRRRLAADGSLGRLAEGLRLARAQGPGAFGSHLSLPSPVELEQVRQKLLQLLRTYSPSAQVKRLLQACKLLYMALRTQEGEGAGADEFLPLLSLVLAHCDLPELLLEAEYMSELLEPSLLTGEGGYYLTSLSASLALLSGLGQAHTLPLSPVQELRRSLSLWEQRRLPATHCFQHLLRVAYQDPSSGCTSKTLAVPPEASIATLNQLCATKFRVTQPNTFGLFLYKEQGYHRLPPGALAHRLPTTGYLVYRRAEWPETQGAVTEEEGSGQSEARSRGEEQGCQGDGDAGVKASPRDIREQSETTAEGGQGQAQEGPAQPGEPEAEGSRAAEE
Another test addresses Melanocortin receptor 4 (Homo sapiens, UniProt P32245). The test can be described thus: inhibitors of MC4R cAMP signaling – cell-based, TR-FRET, biased antagonists, dose response (AID 602298).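 Note: antagonist potency against agonist-stimulated cAMP production.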 Type of test: functional.
A short description of test [2]: cAMP pathway inhibition in counterscreen cell line – TR-FRET cAMP detection, counter-screen for MC4R biased antagonist project, dose response (AID 602305).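 Note: U2OS cells stimulated with forskolin near its EC80 as the cAMP inducer; potency is for inhibition of forskolin-stimulated cAMP signaling.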 It counts as functional, cell-based.
In test [3] the target is T1, Corticotropin-releasing factor receptor 2/Corticotropin-releasing factor-binding protein (Homo sapiens, UniProt P24387+Q13324).
T1 sequence (Q13324 whole entry): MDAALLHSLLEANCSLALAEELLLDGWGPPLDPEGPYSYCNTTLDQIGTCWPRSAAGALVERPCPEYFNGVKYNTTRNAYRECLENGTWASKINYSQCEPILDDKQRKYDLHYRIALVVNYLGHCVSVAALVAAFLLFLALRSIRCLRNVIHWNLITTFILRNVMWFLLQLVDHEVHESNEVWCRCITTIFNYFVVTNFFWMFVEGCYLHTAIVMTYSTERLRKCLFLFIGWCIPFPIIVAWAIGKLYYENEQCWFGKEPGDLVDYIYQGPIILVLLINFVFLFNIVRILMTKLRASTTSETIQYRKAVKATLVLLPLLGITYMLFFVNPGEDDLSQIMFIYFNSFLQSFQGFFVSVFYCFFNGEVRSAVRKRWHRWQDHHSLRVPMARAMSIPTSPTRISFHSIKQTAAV
T1 sequence (P24387 whole entry): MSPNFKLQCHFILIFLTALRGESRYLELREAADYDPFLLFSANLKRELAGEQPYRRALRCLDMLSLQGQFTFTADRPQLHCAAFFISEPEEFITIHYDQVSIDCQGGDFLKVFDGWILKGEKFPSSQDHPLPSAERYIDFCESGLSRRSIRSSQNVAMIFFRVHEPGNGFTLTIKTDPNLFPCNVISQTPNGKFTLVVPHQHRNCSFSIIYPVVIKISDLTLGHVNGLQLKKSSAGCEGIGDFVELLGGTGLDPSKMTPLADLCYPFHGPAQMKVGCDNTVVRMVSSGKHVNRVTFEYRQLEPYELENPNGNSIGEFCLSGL
The test can be described thus: Dose Response confirmation of uHTS hits for small molecule antagonists of the CRF-binding protein and CRF-R2 receptor complex. Type of test: functional. The settings on record: read-out: IC50_Mean.

Test [4] addresses T1, Corticotropin-releasing factor receptor 2/Corticotropin-releasing factor-binding protein. Briefly: activators of CRF receptor 2 with binding protein – uHTS hits, confirmation (AID 602473). Type of test: functional. The settings on record: read-out: EC50_Mean.
Test [5] can be described thus: blockers of CRF-binding protein–CRF-R2 complex – cell-based, uHTS hits, 384-well, dose response (AID 651639). Type of test: functional, Homo sapiens. Particulars: read-out: IC50_Mean.
In test [6] the target is T2, Heat shock factor protein 1 (Mus musculus, UniProt P38532).
T2 sequence (P38532 whole entry): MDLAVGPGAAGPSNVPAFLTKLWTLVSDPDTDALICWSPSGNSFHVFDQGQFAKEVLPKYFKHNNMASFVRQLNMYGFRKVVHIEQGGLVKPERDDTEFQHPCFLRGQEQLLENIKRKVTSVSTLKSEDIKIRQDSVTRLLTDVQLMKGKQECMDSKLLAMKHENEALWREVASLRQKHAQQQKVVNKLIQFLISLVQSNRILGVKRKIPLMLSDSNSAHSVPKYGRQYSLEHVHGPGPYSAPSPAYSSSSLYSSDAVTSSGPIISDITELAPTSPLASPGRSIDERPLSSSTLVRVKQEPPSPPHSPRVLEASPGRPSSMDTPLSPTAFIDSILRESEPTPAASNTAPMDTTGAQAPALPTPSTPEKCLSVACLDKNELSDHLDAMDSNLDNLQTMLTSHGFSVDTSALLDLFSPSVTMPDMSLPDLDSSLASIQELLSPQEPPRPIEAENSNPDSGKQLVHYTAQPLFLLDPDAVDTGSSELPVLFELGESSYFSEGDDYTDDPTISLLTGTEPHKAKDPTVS
The test can be described thus: enhancement of HSF1-driven luciferase signal – cell-based, NIH3T3, luminescence, dose retest, confirmation (AID 435004).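 Note: stress induced by proteasome inhibitor MG132 added 30 min after compound; luciferase reporter driven by HSF1 response element in NIH3T3 cells; actives raise luminescence as potentiators of the MG132 stress response.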 It counts as functional.

Test [7] deals with T3, Microphthalmia-associated transcription factor (Homo sapiens, UniProt O75030).
T3 sequence (O75030 whole entry): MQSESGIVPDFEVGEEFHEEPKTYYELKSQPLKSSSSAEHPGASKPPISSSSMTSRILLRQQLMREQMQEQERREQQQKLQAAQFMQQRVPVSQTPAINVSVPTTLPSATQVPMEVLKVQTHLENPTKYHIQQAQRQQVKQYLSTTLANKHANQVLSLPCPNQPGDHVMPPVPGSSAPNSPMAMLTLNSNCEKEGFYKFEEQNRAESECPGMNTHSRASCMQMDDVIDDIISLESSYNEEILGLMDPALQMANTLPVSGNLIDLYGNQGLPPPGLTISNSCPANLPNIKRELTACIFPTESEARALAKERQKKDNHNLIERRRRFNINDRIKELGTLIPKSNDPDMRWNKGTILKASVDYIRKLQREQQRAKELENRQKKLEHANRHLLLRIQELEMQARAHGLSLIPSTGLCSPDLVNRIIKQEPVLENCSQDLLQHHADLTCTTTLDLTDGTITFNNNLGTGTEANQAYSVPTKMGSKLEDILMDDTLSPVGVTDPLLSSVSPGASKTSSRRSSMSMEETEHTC
Briefly: reducers of TRPM1 reporter luminescence, concentration series – cell-based, SK-MEL-5, cherry-picked, set 3, MITF inhibitor project, dose response (AID 493073).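 Note: SK-MEL-5 melanoma cells with luciferase driven by the MITF target TRPM1 promoter.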 It counts as functional.

In a further test the test system is INS1. Briefly: INS-1E survival protection against cytokine death – cell-based, luminescence, retest, dose response (AID 449756).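 Note: cell death triggered by IL-1 beta plus TNF-alpha plus IFN-gamma mixture; protective hits raise ATP signal compared with cytokine alone wells.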 Particulars: Rattus norvegicus. Type of test: functional.
Test [8] addresses Mitochondrial peptide methionine sulfoxide reductase (Bos taurus, UniProt P54149). The test can be described thus: Absorbance-based biochemical high throughput dose response assay for activators of Methionine sulfoxide reductase A (MsrA). It counts as functional.
The target of another test is Protein Wnt-3a (Mus musculus, UniProt P27467). Briefly: antagonism of Wnt3a pathway luciferase reporter – Wnt-LIGHT cells, luminescence, selectivity assay for Gli-SUFU antagonist project, dose response (AID 651570).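 Note: Wnt-LIGHT reporter cells stimulated with conditioned medium from Wnt3a-producing cells.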 Type of test: functional. Particulars: read-out: IC50_Mean.
Protein Wnt-3a, sequence (P27467 whole entry): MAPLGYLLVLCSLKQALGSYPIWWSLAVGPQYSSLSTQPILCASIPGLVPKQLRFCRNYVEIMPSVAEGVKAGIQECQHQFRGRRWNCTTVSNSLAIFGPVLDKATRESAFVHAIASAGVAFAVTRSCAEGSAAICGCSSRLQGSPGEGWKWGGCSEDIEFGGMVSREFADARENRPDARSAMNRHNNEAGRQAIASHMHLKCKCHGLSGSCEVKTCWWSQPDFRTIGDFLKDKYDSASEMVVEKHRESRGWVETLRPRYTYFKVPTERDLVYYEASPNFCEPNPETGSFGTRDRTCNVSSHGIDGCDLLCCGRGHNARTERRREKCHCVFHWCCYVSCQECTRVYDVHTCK
The target of test [9] is Serine/threonine-protein kinase pim-1 (Homo sapiens, UniProt P11309). Type of test: functional.
Serine/threonine-protein kinase pim-1, sequence (P11309 whole entry): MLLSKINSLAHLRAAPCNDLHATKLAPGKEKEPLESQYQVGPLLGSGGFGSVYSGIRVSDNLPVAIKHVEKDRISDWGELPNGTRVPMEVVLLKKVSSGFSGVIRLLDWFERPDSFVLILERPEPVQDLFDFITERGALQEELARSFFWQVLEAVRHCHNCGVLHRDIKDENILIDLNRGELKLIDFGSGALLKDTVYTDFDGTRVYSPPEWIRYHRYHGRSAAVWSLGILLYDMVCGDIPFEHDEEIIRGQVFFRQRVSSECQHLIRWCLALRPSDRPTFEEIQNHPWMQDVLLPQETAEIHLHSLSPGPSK
Test [10] deals with Hepatocyte nuclear factor 4-alpha (Homo sapiens, UniProt P41235). It counts as functional, cell-based.
Hepatocyte nuclear factor 4-alpha, sequence (P41235 whole entry): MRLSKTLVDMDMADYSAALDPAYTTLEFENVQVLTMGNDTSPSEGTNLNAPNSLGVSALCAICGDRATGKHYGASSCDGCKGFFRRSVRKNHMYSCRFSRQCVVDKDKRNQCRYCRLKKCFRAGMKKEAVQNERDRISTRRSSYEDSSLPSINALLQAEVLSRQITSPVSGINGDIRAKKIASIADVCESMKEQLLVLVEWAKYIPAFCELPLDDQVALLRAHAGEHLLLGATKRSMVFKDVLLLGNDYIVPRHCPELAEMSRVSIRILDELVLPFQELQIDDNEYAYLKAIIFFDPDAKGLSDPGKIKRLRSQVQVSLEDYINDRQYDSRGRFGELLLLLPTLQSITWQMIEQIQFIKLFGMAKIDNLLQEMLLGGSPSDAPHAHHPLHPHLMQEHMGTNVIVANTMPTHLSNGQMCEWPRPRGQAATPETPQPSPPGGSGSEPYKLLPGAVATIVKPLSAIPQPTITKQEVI

Results on six compounds are retold here after ChEMBL document CHEMBL1201862, “PubChem BioAssay data set” (2004).

SMILES strings stand for the structures. Activity calls are given as the source filed them.

By CC50 is commonly meant the concentration that lowers cell viability or growth by half. What is called AC50 is the concentration at which the activity in the assay is half-maximal. One may read the Ki as the equilibrium dissociation constant of an inhibitor or competing ligand from its target.

Mitochondrial peptide methionine sulfoxide reductase, sequence (P54149 whole entry): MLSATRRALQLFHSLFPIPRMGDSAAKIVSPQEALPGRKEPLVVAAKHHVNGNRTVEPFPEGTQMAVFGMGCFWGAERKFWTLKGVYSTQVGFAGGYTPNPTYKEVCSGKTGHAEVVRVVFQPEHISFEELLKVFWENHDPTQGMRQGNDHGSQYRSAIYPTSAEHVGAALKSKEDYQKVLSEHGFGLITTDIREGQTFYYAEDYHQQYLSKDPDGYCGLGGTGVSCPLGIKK
Melanocortin receptor 4, sequence (P32245 whole entry): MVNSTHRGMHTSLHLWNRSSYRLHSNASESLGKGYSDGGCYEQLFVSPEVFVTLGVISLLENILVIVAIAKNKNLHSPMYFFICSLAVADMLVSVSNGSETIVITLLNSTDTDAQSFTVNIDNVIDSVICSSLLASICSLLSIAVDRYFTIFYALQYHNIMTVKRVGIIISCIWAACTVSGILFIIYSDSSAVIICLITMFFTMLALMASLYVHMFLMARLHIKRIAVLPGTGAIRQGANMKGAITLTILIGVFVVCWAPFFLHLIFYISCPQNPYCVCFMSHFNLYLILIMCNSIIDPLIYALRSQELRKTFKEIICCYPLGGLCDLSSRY
Genome polyprotein, sequence (P29990 2492-3391 limits assumed): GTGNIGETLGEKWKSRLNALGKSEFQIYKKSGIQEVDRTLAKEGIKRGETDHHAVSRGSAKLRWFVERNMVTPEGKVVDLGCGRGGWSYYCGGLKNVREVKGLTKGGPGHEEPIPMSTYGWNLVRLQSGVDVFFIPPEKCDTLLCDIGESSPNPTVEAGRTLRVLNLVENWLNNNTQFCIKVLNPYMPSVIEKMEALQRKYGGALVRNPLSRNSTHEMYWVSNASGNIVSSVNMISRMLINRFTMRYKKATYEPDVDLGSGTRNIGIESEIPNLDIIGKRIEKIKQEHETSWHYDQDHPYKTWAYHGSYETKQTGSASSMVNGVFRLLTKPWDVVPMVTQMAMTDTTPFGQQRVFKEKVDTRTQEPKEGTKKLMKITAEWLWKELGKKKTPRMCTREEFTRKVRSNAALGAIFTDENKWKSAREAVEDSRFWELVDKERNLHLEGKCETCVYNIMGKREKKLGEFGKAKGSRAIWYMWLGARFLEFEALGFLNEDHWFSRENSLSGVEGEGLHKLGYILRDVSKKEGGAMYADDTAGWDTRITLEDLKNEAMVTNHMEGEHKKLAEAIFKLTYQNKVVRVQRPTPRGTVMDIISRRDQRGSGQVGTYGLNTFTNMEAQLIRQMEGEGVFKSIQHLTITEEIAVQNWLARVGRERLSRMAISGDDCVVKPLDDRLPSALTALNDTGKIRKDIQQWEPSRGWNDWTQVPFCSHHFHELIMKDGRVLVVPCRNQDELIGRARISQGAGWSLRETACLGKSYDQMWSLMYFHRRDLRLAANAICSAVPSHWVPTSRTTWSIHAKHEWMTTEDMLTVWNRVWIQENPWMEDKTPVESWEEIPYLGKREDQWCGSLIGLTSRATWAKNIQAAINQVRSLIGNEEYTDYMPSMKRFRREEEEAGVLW

Regarding `CCOc1c(Cl)cc(C(=O)Nc2ccccc2C(=O)O)cc1Cl`, the 50% cytotoxic concentration (CC50) with Vero was > 40 µM (active). In addition, the IC50 at Genome polyprotein was 52 µM (active); in test [1], 26.8 µM (inactive).
Turning to `Cc1cc(C(=O)COc2cc(F)ccc2[N+](=O)[O-])c(C)n1CC1CCCO1` (stereo not given), the IC50 (on Melanocortin receptor 4; in [2]) was > 64.6 µM (inactive) each time.
As to `CC1(C)C2CC=C(/C=N/NC(=O)c3ccccc3O)C1C2` (stereo not given), the IC50 in [3] was 5.3 µM (active); in [5], > 20 µM (inactive). Moreover, the EC50 in test [4] was 31.1 µM (active).
For `Nc1nc2ccccc2n1/N=C/c1ccc([N+](=O)[O-])s1`, the EC50 is 4.39 µM (active) in [6] and > 104 µM (inactive) in [8]. For the same compound, the concentration at half-maximal activity (AC50) is 2.81 µM (active) in [7] and 4.11 µM (active) in the test on INS1. On Protein Wnt-3a, the IC50 is 15.3 µM (active).
Consider `Cc1cc(=O)n2[nH]cc(C(=O)NCc3ccccc3)c2n1`, for which the inhibition constant (Ki) in test [9] is 3.98 µM (active).
With `COC(=O)c1cc(=O)n(Cc2ccco2)/c(=N/c2ccc(F)cc2)s1`, the IC50 in [10] is 5.67 µM (active).
